In ChEMBL document CHEMBL3352464, “X-ray crystallographic analysis of IMP-1 metallo-β-lactamase complexed with a 3-aminophthalic acid derivative, structure-based drug design, and synthesis of 3,6-disubstituted phthalic acid derivative inhibitors” (Bioorg Med Chem Lett, 2014):

Legend:
Pseudomonas aeruginosa [1] = assay: Inhibition of IMP-1 in mexAB-deficient Pseudomonas aeruginosa KG5002/pMS363 assessed as MIC of BIPM at 50 ug/ml by microbroth dilution method
Pseudomonas aeruginosa [2] = assay: Inhibition of IMP-1 in Pseudomonas aeruginosa PAO1/pMS363 assessed as MIC of BIPM at 50 ug/ml by microbroth dilution method
[3] = Inhibition of carbapenems-resistant Pseudomonas aeruginosa PAO1/pMS363 IMP-1 using nitrocefin as substrate after 20 mins by spectrophotometric analysis

Compound | MIC (Pseudomonas aeruginosa [1]) [µg/mL] | MIC (Pseudomonas aeruginosa [2]) [µg/mL] | IC50 [3] [nM]
O=C(O)c1c(N2CCC(O)CC2)ccc(N2CCC(O)CC2)c1C(=O)O | < 0.25 | 0.5 | 270
Cc1ccc(N2CCC(O)CC2)c(C(=O)O)c1C(=O)O | < 0.25 | 1 | 700
O=C(O)c1c(F)ccc(N2CCC(O)CC2)c1C(=O)O | 1 | 2 | 17500
CN(C)c1ccc(N2CCC(O)CC2)c(C(=O)O)c1C(=O)O | < 0.25 | 1 | 4100
O=C(O)c1cccc(N2CCC(O)CC2)c1C(=O)O | < 0.25 | 1 | 2700
